Experimental data from patent publication US10098852B2 (LAUNX BIOMEDICAL CO., LTD., priority 2014, dated 2018).
Values joined by “and” are separate entries in the source; they are usually repeats but may differ in a detail not shown here. Identical values can stand only once. Like-named read-outs stand apart in the source and are kept apart here.

Key:
[1] = system: H1650 (lung adenocarcinoma); assay: Cell viability analysis (WST-1), lung cancer cell line H1650; type: cell-based; details: Homo sapiens
Method: (§1) The cell numbers were counted and reseed as 2×10^6 in cell culture plate/flask. Then, the culture medium was added to a volume of 10 ml, and the cells were cultured for 2-3 days. Then, the cells were suspended for loading into 96-well plates. The cell number was 3000/well and the volume of the culture medium was 100 μl each well.
(§2) Removing the original culture medium from 96-well plate. Then add 100 μl of commercially drug at a concentration of 10 μM per well. After 72 hours, add the diluted WST-1 reagent to the well with 100 μl/well, and the diluted WST-1 reagent was acquired from the dilution of 9:1 medium and WST-1 stock reagent. Finally, the total volume of each well was 200 μl/well. Culture the 96-well plate at 37° C. for 30 to 90 minutes. Detecting and calculate the survival rate of each cancer cells with an ELISA reader at OD450 nm.

[2] = system: T24 (bladder cancer cell line); assay: Cell viability analysis (WST-1), bladder cancer cell line T24; type: cell-based; details: T24, 10 μM
Method: as §1, §2

[3] = system: 786-O (Renal adenocarcinoma); assay: Cell viability analysis (WST-1), renal cancer cell line 786-O; type: cell-based; details: Homo sapiens
Method: as §1, §2

[4] = system: MCF7 (Mammary Gland, Adenocarcinoma); assay: Cell viability analysis (WST-1), breast cancer cell line MCF7; type: cell-based; details: Homo sapiens
Method: as §1, §2

[5] = system: MKN-45 (Gastric Adenocarcinoma); assay: Cell viability analysis (WST-1), gastric cancer cell line MKN-45; type: cell-based; details: Homo sapiens
[6] = system: HepG2 (hepatocellular carcinoma); assay: Cell viability analysis (WST-1), hepatic cancer cell line HepG2; type: cell-based; details: Homo sapiens
Method: as §1, §2

[7] = system: Hep3B (hepatocellular carcinoma); assay: Cell viability analysis (WST-1), hepatic cancer cell line Hep3B; type: cell-based; details: Homo sapiens
[8] = system: BCC (basal cell carcinoma); assay: Cell viability analysis (WST-1), skin cancer cell line BCC; type: cell-based
Method: as §1, §2

[9] = Cell viability analysis (WST-1), human fibroblast cell line HFW; type: cell-based; details: HFW fibroblast cells (normal)
Method: as §1, §2

[10] = Cell viability analysis (WST-1), normal pulmonary epithelial cell line BEAS-2B; type: cell-based; details: human, BEAS-2B normal pulmonary epithelial cells, BEAS-2B normal cells
Text: Subculture the different types of cancer cells. The cancer cells lines includes lung cancer, gastric cancer, hepatic cancer, colon cancer, skin cancer, cervical cancer, prostate cancer, bladder cancer, breast cancer, leukemia, pancreatic cancer, ovarian cancer, tongue cancer, osteosarcoma, and renal cancer. The normal cells used in the control group included kidney cell line (HEK293) and human bronchial epithelial cell line BEAS-2B.
as §1, §2

cervical cancer cell = assay: Summary of the effect on cervical cancer cell (HeLa, C-33A); type: cell-based; details: cervical cancer cell (mean of HeLa and C-33A averages), 72 hours, read-out: Inhibitory effect
Method: as §2

gastric cancer cell = assay: Summary of the effect on gastric cancer cell (AGS, MKN-45); type: cell-based; details: Homo sapiens, gastric cancer cell (mean of AGS and MKN-45 averages), 72 hours, read-out: Inhibitory effect
Method: as §2

skin cancer cell = assay: Summary of the effect on skin cancer cell (A375, BCC); type: cell-based; details: Homo sapiens, A-375, skin cancer cell (mean of A375 and BCC averages), 72 hours, read-out: Inhibitory effect
Method: as §2

various cancer cells = assay: Inhibition test on all kinds of cancer cells (overall statement); type: cell-based; details: FIG. 1
Method: as §2

[11] = Animal model test of gastric cancer: body weight and survival; type: in vivo, mice (BALB/cAnN.Cg-Foxn1nu/CrlNarl); details: for weight: individual mice A, B, C
Method: In this invention, the female mice were (BALB/cAnN.Cg-Foxn1^nu/CrlNarl) purchased from National Laboratory Animal Center (Taiwan)). The weight of the mice were 21±1 g. These mice were subcutaneously injected with gastric cancer cells (AGS) and then put these mice into different cages at random. The drug test experiment was divided into three groups, include “control group”, “low dose group (100 mg/kg/day)”, and “high dose group (200 mg/kg/day)”. These mice were then injected test drug intraperitoneally once daily […]. The tumor sizes and body weight were measured twice a week. The tumor sizes were measured and calculated by formula: (L×W^2)/2. L represents the tumor longest length. W represents the tumor shortest diameter.

[12] = 72 h, average of 4 tests, read-out: inhibition effect (survival rate of cells), average
[13] = average of 4 tests, read-out: inhibition effect (survival rate of cells), average

## Oc1ccc(OCc2ccccc2)cc1 [Monobenzone]
[1]; NCI-H1650, 72 h, H1650, 10 μM, average of 4 tests, read-out: inhibition effect (survival rate of cells), Average
  viability at 10 µM: 86.3%
[1]; NCI-H1650, H1650, 10 μM, 72 hours, test 1-10 min, read-out: inhibition effect (survival rate of cells)
  viability at 10 µM: 90.1%
[1]; NCI-H1650, H1650, 10 μM, 72 hours, test 2-20 min, read-out: inhibition effect (survival rate of cells)
  viability at 10 µM: 66.6%
[1]; NCI-H1650, H1650, 10 μM, 72 hours, test 3-20 min, read-out: inhibition effect (survival rate of cells)
  viability at 10 µM: 86.7%
[1]; NCI-H1650, H1650, 10 μM, 72 hours, test 4-20 min, read-out: inhibition effect (survival rate of cells)
  viability at 10 µM: 102%
[2]; [12]
  viability at 10 µM: 87%
[2]; 72 hours, test T24-1-30 min, read-out: inhibition effect (survival rate of cells)
  viability at 10 µM: 93.5%
[2]; 72 hours, test T24-2-20 min, read-out: inhibition effect (survival rate of cells)
  viability at 10 µM: 70.4%
[2]; 72 hours, test T24-3-20 min, read-out: inhibition effect (survival rate of cells)
  viability at 10 µM: 89.4%
[2]; 72 hours, test T24-4-20 min, read-out: inhibition effect (survival rate of cells)
  viability at 10 µM: 94.7%
[3]; 786-0, 786-O, 72 hours, test 0524-10 min, read-out: inhibition effect (survival rate of cells)
  viability at 10 µM: 39.8%
[3]; 786-0, 786-O, 72 hours, test 0526-10 min, read-out: inhibition effect (survival rate of cells)
  viability at 10 µM: 32.4%
[3]; 786-0, 786-O, 72 hours, test 0529-10 min, read-out: inhibition effect (survival rate of cells)
  viability at 10 µM: 21.2%
[3]; 786-0, 786-O, 72 hours, test 0531-10 min, read-out: inhibition effect (survival rate of cells)
  viability at 10 µM: 23.4%
[3]; 786-0, 72 h, 786-O, average of 4 tests, read-out: inhibition effect (survival rate of cells), average
  viability at 10 µM: 29.2%
[3]; 786-0, 72 h, Kidney cancer cell (786-O average), read-out: Inhibitory effect
  viability at 10 µM: 29.2%
[4]; MCF7, 72 h, MCF7, 10 μM, average of 4 tests, read-out: inhibition effect (survival rate of cells), average
  viability at 10 µM: 95.7%
[4]; MCF7, MCF7, 10 μM, 72 hours, test 0612-10 min, read-out: inhibition effect (survival rate of cells)
  viability at 10 µM: 107%
[4]; MCF7, MCF7, 10 μM, 72 hours, test 0614-10 min, read-out: inhibition effect (survival rate of cells)
  viability at 10 µM: 88.8%
[4]; MCF7, MCF7, 10 μM, 72 hours, test 0616-10 min, read-out: inhibition effect (survival rate of cells)
  viability at 10 µM: 80.6%
[4]; MCF7, MCF7, 10 μM, 72 hours, test 0619-10 min, read-out: inhibition effect (survival rate of cells)
  viability at 10 µM: 106%
[5]; MKN-45, 72 h, MKN-45, 10 μM, average of 4 tests, read-out: inhibition effect (survival rate of cells), average
  viability at 10 µM: 97.2%
[5]; MKN-45, MKN-45, 10 μM, 72 hours, test 0510-10 min, read-out: inhibition effect (survival rate of cells)
  viability at 10 µM: 89.2%
[5]; MKN-45, MKN-45, 10 μM, 72 hours, test 0512-10 min, read-out: inhibition effect (survival rate of cells)
  viability at 10 µM: 107%
[5]; MKN-45, MKN-45, 10 μM, 72 hours, test 0517-10 min, read-out: inhibition effect (survival rate of cells)
  viability at 10 µM: 91.3%
[6]; HepG2, 72 h, HepG2, 10 μM, average of 4 tests, read-out: inhibition effect (survival rate of cells), average
  viability at 10 µM: 84.7%
[6]; HepG2, HepG2, 10 μM, 72 hours, test 0524-20 min, read-out: inhibition effect (survival rate of cells)
  viability at 10 µM: 88.2%
[6]; HepG2, HepG2, 10 μM, 72 hours, test 0526-20 min, read-out: inhibition effect (survival rate of cells)
  viability at 10 µM: 85.6%
[6]; HepG2, HepG2, 10 μM, 72 hours, test 0529-20 min, read-out: inhibition effect (survival rate of cells)
  viability at 10 µM: 90.8%
[6]; HepG2, HepG2, 10 μM, 72 hours, test 0531-20 min, read-out: inhibition effect (survival rate of cells)
  viability at 10 µM: 74.3%
[7]; [12]
  viability at 10 µM: 106%
[7]; 72 hours, test 0612-20 min, read-out: inhibition effect (survival rate of cells)
  viability at 10 µM: 111%
[7]; 72 hours, test 0614-20 min, read-out: inhibition effect (survival rate of cells)
  viability at 10 µM: 116%
[7]; 72 hours, test 0616-20 min, read-out: inhibition effect (survival rate of cells)
  viability at 10 µM: 96.8%
[8]; 72 h, average of 4 tests, read-out: inhibition effect (survival rate of cells), Average
  viability at 10 µM: 50.1%
[8]; 72 hours, test 0602-30 min, read-out: inhibition effect (survival rate of cells)
  viability at 10 µM: 48.2%
[8]; 72 hours, test 0605-10 min, read-out: inhibition effect (survival rate of cells)
  viability at 10 µM: 59.8%
[8]; 72 hours, test 0607-10 min, read-out: inhibition effect (survival rate of cells)
  viability at 10 µM: 38.6%
[8]; 72 hours, test 0609-10 min, read-out: inhibition effect (survival rate of cells)
  viability at 10 µM: 53.8%
[9]; [13]
  viability at 72 h, 10 µM: 85.4%
[9]; test 0612-10 min, read-out: inhibition effect (survival rate of cells)
  viability at 72 h, 10 µM: 120%
[9]; test 0614-10 min, read-out: inhibition effect (survival rate of cells)
  viability at 72 h, 10 µM: 74.9%
[9]; test 0616-10 min, read-out: inhibition effect (survival rate of cells)
  viability at 72 h, 10 µM: 68.1%
[9]; test 0619-10 min, read-out: inhibition effect (survival rate of cells)
  viability at 72 h, 10 µM: 79.1%
[10]; [13]
  viability at 72 h, 10 µM: 73.8%
[10]; test 0510-10 min, read-out: inhibition effect (survival rate of cells)
  viability at 72 h, 10 µM: 84.7%
[10]; test 0512-10 min, read-out: inhibition effect (survival rate of cells)
  viability at 72 h, 10 µM: 79.5%
[10]; test 0515-10 min, read-out: inhibition effect (survival rate of cells)
  viability at 72 h, 10 µM: 74.9%
[10]; test 0517-10 min, read-out: inhibition effect (survival rate of cells)
  viability at 72 h, 10 µM: 56.2%
Cervical cancer cell
  viability at 10 µM: 71.2%
Gastric cancer cell
  viability at 10 µM: 82.8%
Skin cancer cell
  viability at 10 µM: 63.2%
Various cancer cells
  inhibitory effect and specificity on various cancer cells (in words): significant inhibitory effect and specificity on various cancer cells
[11]; both high and low doses
  health status / death of tested mice during the treatment (in words): healthy status during the treatment without death
[11]; both low dose and high dose, FIG. 2
  weight of mice during the experiment (in words): did not show a significant decrease
[11]; high dose (200 mg/kg/day) i.p. once daily, Fifth measurement, 200 mg/kg/day
  weight: 20 g (2×) and 21 g
[11]; high dose (200 mg/kg/day) i.p. once daily, First measurement, 200 mg/kg/day
  weight: 20 g (2×) and 19.5 g
[11]; high dose (200 mg/kg/day) i.p. once daily, Fourth measurement, 200 mg/kg/day
  weight: 20 g (2×) and 21 g
[11]; high dose (200 mg/kg/day) i.p. once daily, Second measurement, 200 mg/kg/day
  weight: 19 g (2×) and 20 g
[11]; high dose (200 mg/kg/day) i.p. once daily, Third measurement, 200 mg/kg/day
  weight: 20.5 g and 19 g and 20 g
[11]; low dose (100 mg/kg/day) i.p. once daily, Fifth measurement, 100 mg/kg/day
  weight: 20 g (2×) and 21 g
[11]; low dose (100 mg/kg/day) i.p. once daily, First measurement
  weight: 21 g
[11]; low dose (100 mg/kg/day) i.p. once daily, Fourth measurement, 100 mg/kg/day
  weight: 20 g (2×) and 21 g
[11]; low dose (100 mg/kg/day) i.p. once daily, Second measurement, 100 mg/kg/day
  weight: 20 g (2×) and 19 g
[11]; low dose (100 mg/kg/day) i.p. once daily, Third measurement, 100 mg/kg/day
  weight: 19.5 g and 19 g and 18.5 g
